Laboratory results taken from patent US4013794A, “O-alkyl-S-alkyl-O-phenyl phosphates and insecticidal and acaricidal method of use” (priority 1973, dated 1977).

Legend:
[1] = test system: fly larvae (Lucilia cuprina res.); experiment: Test with parasitic fly larvae; format: in vivo; settings: after 24 hours, read-out: Degree of destruction in %
Protocol: Solvent: 35 parts by weight of ethylene polyglycol monomethyl ether
Emulsifier: 35 parts by weight of nonylphenol polyglycol ether.
To produce a suitable preparation of active compound, 30 parts by weight of the active substance in question were mixed with the stated amount of solvent which contained the above-mentioned proportion of emulsifier and the concentrate thus obtained was diluted with water to the desired concentration.
About 20 fly larvae (Lucilia cuprina) were introduced into a test tube which contained approximately 2 ml of horse muscle. 0.5 ml of the preparation of active compound was applied to this horse meat. After 24 hours, the degree of destruction was determined in %. 100% means that all the larvae had been killed and 0% means that no larvae had been killed.

[2] = test system: larvae of mustard beetles (Phaedon cochleariae); experiment: Phaedon-Larvae-Test; format: in vivo; settings: in Brassica, 72 h, after 3 days, read-out: Degree of destruction in % after 3 days; for mortality at 0.004 % strength: 0.004 % active compound; for mortality at 0.02 % strength: 0.02 % active compound; for mortality at 0.1 % strength: 0.1 % active compound
Protocol: (§1) Solvent: 3 parts by weight Acetone
(§2) Emulsifier: 1 part by weight Alkylaryl polyglycol ether
To produce a suitable preparation of the particular active compound, 1 part by weight of such active compound is mixed with the stated amount of solvent and the stated amount of emulsifier, and the resulting concentrate is diluted with water to the desired final concentration.
Cabbage leaves (Brassica oleracea) are sprayed with the preparation of the given active compound until dripping wet and then infested with the larvae of mustard beetles (Phaedon cochleariae).
After specified periods of time, the degree of destruction is determined as a percentage: 100 % means that all the beetle larvae are killed, 0 % means that none of the beetle larvae are killed. The active compounds, the concentrations used, the evaluation time and the results obtained can be seen from the following Table 5: […]

[3] = Toxicity test (peroral), albino rat; settings: in vivo, po, evaluation after 7 days, read-out: LD50 values (in mg/kg of body weight)
Protocol: Test animal: Albino rat (Rattus norvegicus)
To produce a suitable preparation of active compound, 3 parts by weight of active compound were mixed with 2.8 parts by weight of highly dispersible silica and 4.2 parts by weight of talc. Suspensions which contained, in 1 ml of liquid, the amount of active compound to be applied per 100 g of animal weight, were prepared from the above active-compound concentrate, with a little added powdered vegetable gum, by grinding with water. Dosing was effected volumetrically after weighing the test animals. A steel, knob-ended probe was used for oral administration. The evaluation was carried out in each case after the end of the above-mentioned time interval, calculated from the administration of the active compound.
The LD50 values (dose of active compound at which 50% of the treated animals were killed) were determined in the usual manner from the mortality figures of the doses, which were varied in geometrical progression.

[4] = test system: caterpillars of the diamond-back moth (Plutella maculipennis); experiment: Plutella Test; format: in vivo; settings: 72 h, after 3 days, read-out: Degree of destruction in % after 3 days; for mortality at 0.004 % strength: 0.004 % active compound; for mortality at 0.02 % strength: 0.02 % active compound; for mortality at 0.1 % strength: 0.1 % active compound; for mortality at 0.0008 % strength: 0.0008 % active compound
Protocol: as §1, §2
(§3) To produce a suitable preparation of active compound, 1 part by weight of the active compound is mixed with the stated amount of solvent and the stated amount of emulsifier and the concentrate is diluted with water to the desired concentration.
Cabbage leaves (Brassica oleracea) are sprayed with the preparation of the active compound until dew moist and are then infested with caterpillars of the diamond-back moth (Plutella maculipennis).
After the specified periods of time, the degree of destruction is determined as a percentage: 100 % means that all the caterpillars are killed whereas 0 % means that none of the caterpillars are killed.

[5] = test system: peach aphids (Myzus persicae); experiment: Myzus Test (contact action); format: in vivo; settings: 24 h, after 1 day, read-out: Degree of destruction in % after 1 day; for mortality at 0.02 % strength: 0.02 % active compound; for mortality at 0.1 % strength: 0.1 % active compound
Protocol: as §1, §2, §3
Cabbage plants (Brassica oleracea) which have been heavily infested with peach aphids (Myzus persicae) are sprayed with the preparation of the active compound until dripping wet.
After the specified periods to time, the degree of destruction is determined as a percentage: 100 % means that all the aphids are killed whereas 0 % means that none of the aphids are killed.

[6] = test system: two-spotted spider mite (Tetranychus urticae); experiment: Tetranychus test (resistant); format: in vivo; settings: 48 h, after 2 days, read-out: Degree of destruction in % after 2 days; for mortality at 0.01 % strength: 0.01 % active compound concentration; for mortality at 0.1 % strength: 0.1 % active compound concentration
Protocol: Solvent: 3 parts by weight of acetone
Emulsifier: 1 part by weight of alkylaryl polyglycol ether
To produce a suitable preparation of active compound, 1 part by weight of the active compound was mixed with the stated amount of solvent and the stated amount of emulsifier and the concentrate was diluted with water to the desired concentration.
These bean plants were heavily infested with the two-spotted spider mite (Tetranychus urticae) in all stages of development.
After the specified periods of time, the effectiveness of the preparation of active compounds was determined by counting the dead mites. The degree of destruction thus obtained is expressed as a percentage: 100% means that all the spider mites were killed, whereas 0% means that none of the spider mites were killed.

warm-blooded animals = settings: prior-art compounds; cited from earlier work

CCCSP(=S)(OCC)Oc1ccc(SC(F)C(=O)OCC)cc1 (stereo not drawn) [drawing 16]
mortality at 10 ppm [1]: 0% | mortality at 30 ppm [1]: > 50% | mortality at 100 ppm [1]: 100%

CCCSP(=S)(OCC)Oc1ccc(S(C)(=O)=O)cc1Br (stereo not drawn) [drawing 26]
mortality at 0.004 % strength [2]: 100% | mortality at 0.02 % strength [2]: 100% | mortality at 0.1 % strength [2]: 100%

CCCSP(=S)(OCC)Oc1ccc(S(C)(=O)=O)cc1Cl (stereo not drawn) [drawing 9]
LD50 at 168 h [3]: 50 to 100 mg/kg

CCCSP(=S)(OCC)Oc1ccc(S(=O)(=O)CCl)cc1Cl (stereo not drawn) [drawing 12]
LD50 at 168 h [3]: 100 to 250 mg/kg

CCOP(=S)(OCC)Oc1ccc(S(=O)(=O)CCl)cc1 [drawing 8, reference compound]
LD50 at 168 h [3]: 2.5 to 5 mg/kg

CCCSP(=S)(OCC)Oc1ccc(S(C)(=O)=O)cc1Br (stereo not drawn) [drawing 10]
LD50 at 168 h [3]: 50 to 100 mg/kg

CCCSP(=S)(OCC)Oc1ccc(S(=O)(=O)CCl)cc1 (stereo not drawn) [drawing 19]
mortality at 0.004 % strength [4]: 100% | mortality at 0.02 % strength [4]: 100% | mortality at 0.1 % strength [4]: 100%

CCCSP(=S)(OCC)Oc1ccc(S(=O)(=O)CCl)cc1 (stereo not drawn) [drawing 30]
mortality at 0.02 % strength [5]: 70% | mortality at 0.1 % strength [5]: 100%

CCCSP(=S)(OCC)Oc1ccc(S(=O)(=O)CCl)cc1Cl (stereo not drawn) [drawing 7]
mortality at 0.01 % strength [6]: 60% | mortality at 0.1 % strength [6]: 100%

CCOP(=S)(Oc1ccc(S(C)(=O)=O)cc1)SC (stereo not drawn) [drawing 24]
mortality at 0.004 % strength [2]: 15% | mortality at 0.02 % strength [2]: 100% | mortality at 0.1 % strength [2]: 100%

CCCSP(=S)(OCC)Oc1ccc(S(C)(=O)=O)cc1Cl (stereo not drawn) [drawing 15]
mortality at 1 ppm [1]: 0% | mortality at 3 ppm ([1]; 3 ppm): 100% | mortality at 10 ppm [1]: 100% | mortality at 30 ppm [1]: 100% | mortality at 100 ppm [1]: 100%

CCCSP(=S)(OCC)Oc1ccc(S(=O)(=O)CCl)cc1 (stereo not drawn) [drawing 11]
LD50 at 168 h [3]: ~250 mg/kg

CCCSP(=S)(OCC)Oc1ccc(SC(F)C(=O)OCC)cc1 (stereo not drawn) [drawing 13]
LD50 at 168 h [3]: 100 to 250 mg/kg

CCOP(=S)(Oc1ccc(S(C)(=O)=O)cc1)SC (stereo not drawn) [drawing 27, reference compound]
mortality at 0.02 % strength [5]: 0% | mortality at 0.1 % strength [5]: 35%

CCCSP(=S)(OCC)Oc1ccc(S(C)(=O)=O)cc1 (stereo not drawn) [drawing 18]
mortality at 0.004 % strength [4]: 100% | mortality at 0.02 % strength [4]: 100% | mortality at 0.1 % strength [4]: 100%

CCCSP(=S)(OCC)Oc1ccc(S(C)(=O)=O)cc1 (stereo not drawn) [drawing 28]
mortality at 0.02 % strength [5]: 60% | mortality at 0.1 % strength [5]: 100%

CCCSP(=S)(OCC)Oc1ccc(S(C)(=O)=O)cc1 (stereo not drawn) [drawing 25]
mortality at 0.004 % strength [2]: 100% | mortality at 0.02 % strength [2]: 100% | mortality at 0.1 % strength [2]: 100%

CCCSP(=S)(OCC)Oc1ccc(Cl)cc1Cl (stereo not drawn) [drawing 21]
mortality at 0.0008 % strength [4]: 0% | mortality at 0.004 % strength [4]: 100% | mortality at 0.02 % strength [4]: 100% | mortality at 0.1 % strength [4]: 100%

CCCSP(=S)(OCC)Oc1ccc(S(=O)(=O)CCl)cc1 (stereo not drawn) [drawing 14]
mortality at 1 ppm [1]: 0% | mortality at 10 ppm [1]: 100% | mortality at 30 ppm [1]: 100% | mortality at 100 ppm [1]: 100%

CCCSP(=S)(OCC)Oc1ccc(S(C)(=O)=O)cc1Cl (stereo not drawn) [drawing 29]
mortality at 0.02 % strength [5]: 90% | mortality at 0.1 % strength [5]: 100%

CCCSP(=S)(OCC)Oc1ccc(S(C)(=O)=O)cc1Cl (stereo not drawn) [drawing 20]
mortality at 0.0008 % strength [4]: 100% | mortality at 0.004 % strength [4]: 100% | mortality at 0.02 % strength [4]: 100% | mortality at 0.1 % strength [4]: 100%

CCCSP(=S)(OCC)Oc1ccc(S(=O)(=O)CCl)cc1Cl (stereo not drawn) [drawing 31]
mortality at 0.02 % strength [5]: 55% | mortality at 0.1 % strength [5]: 100%

CCCSP(=S)(OCC)Oc1ccc(S(C)(=O)=O)cc1Br (stereo not drawn) [drawing 22]
mortality at 0.0008 % strength [4]: 90% | mortality at 0.004 % strength [4]: 100% | mortality at 0.02 % strength [4]: 100% | mortality at 0.1 % strength [4]: 100%

CCOP(=S)(Oc1ccc(S(C)(=O)=O)cc1)SC (stereo not drawn) [drawing 17, reference compound]
mortality at 0.004 % strength [4]: 0% | mortality at 0.02 % strength [4]: 85% | mortality at 0.1 % strength [4]: 100%

CCCSP(=S)(OCC)Oc1ccc(Cl)cc1Cl (stereo not drawn) [drawing 23, reference compound]
mortality at 0.004 % strength [2]: 20% | mortality at 0.02 % strength [2]: 100% | mortality at 0.1 % strength [2]: 100%

CCOP(=S)(OCC)Oc1ccc(S(=O)(=O)CCl)cc1 [drawing 6, reference compound]
mortality at 0.01 % strength [6]: 0% | mortality at 0.1 % strength [6]: 50%

CCOP(=S)(OCC)Oc1ccc(S(=O)(=O)CCl)cc1 [Compound A, O,O-diethyl-O-(4-chloromethylsulfonylphenyl)-thionophosphoric acid ester]
toxicity towards warm-blooded animals (warm-blooded animals): high toxicity
